Laboratory results reported in patent US20190336537A1, “GENERATING ATRIAL AND VENTRICULAR CARDIOMYOCYTE LINEAGES FROM HUMAN PLURIPOTENT STEM CELLS” (UNIVERSITY HEALTH NETWORK, priority 2016, published 2019).

Assays:
[1] = system: HES3 NKX2-5:GFP hESC-derived mesoderm; assay: Specification of mesoderm populations to an atrial fate by ROH or RA (day 20 flow cytometry and qRT-PCR); format: cell-based, human
Protocol: To determine if the ALDH^+ cells can synthesize RA, the ALDH^+PDGFRalpha^+ and ALDH^− PDGFRalpha^+ fractions were isolated from the day 4 3B/2A-induced population, and the cells were cultured as aggregates in retinol (ROH), RA, or DMSO (control) for 24 hr (FIGS. 3A and 3B). ALDH1A2 expression segregated to the ALDH^+ fraction, confirming the validity of aldefluor-based sorting strategy for isolating RALDH2-expressing cells (FIG. 3C).
(§1) For cardiac differentiation, we used a modified version of our embryoid body (EB)-based protocol (Kattman et al., 2011). hPSC populations at 80%-90% confluence were dissociated into single cells (TrypLE, ThermoFisher) and re-aggregated to form EBs in StemPro-34 media (ThermoFisher) containing penicillin/streptomycin (1%, ThermoFisher), L-glutamine (2 mM, ThermoFisher), trans-ferrin (150 μg/ml, ROCHE), ascorbic acid (50 μg/ml, Sigma), and monothioglycerol (50 μg/ml, Sigma), ROCK inhibitor Y-27632 (10 μM, TOCRIS) and rhBMP4 (1 ng/ml, R&D) for 18 h on an orbital shaker. At day 1, the EBs were transferred to mesoderm induction media consisting of StemPro-34 with above supplements (-ROCK inhibitor Y-27632) and rhBMP4, rhActivinA (R&D) and rhbFGF (5 ng/ml, R&D) at the indicated concentrations. At day 3, the EBs were harvested, washed with IMDM and transferred to cardiac mesoderm specification media consisting of StemPro-34, the Wnt inhibitor IWP2 (1 μM, TOCRIS) and rhVEGF (10 ng/mL, R&D). At day 5, the EBs were transferred to Stem Pro-34 with rhVEGF (5 ng/ml) for another 7 days and then to Stem Pro-34 media without additional cytokines for further 8 days. At day 20, HES3-NKX2-5gfp/w-derived cardiomyocytes were analyzed and isolated based on the expression of NKX2-5:GFP and SIRPa and a lack of CD90. Cardiomyocytes generated from non-transgenic hPSC lines were analyzed and isolated as SIRPa+CD90− populations. Media was changed every 3 days. Cultures were incubated in a low oxygen environment (5% CO2, 5% O2, 90% N2) for first 12 days and a normoxic environment (5% CO2) for the following 8 days in total of 20 days. The EBs were cultured in ultra-low attachment 6-well dishes (Corning) throughout the differentiation for maintaining suspension cultures.
Following optimization, either ATRA (0.5 μM, Sigma) or retinol (2 μM, Sigma) was included in the cardiac mesoderm specification media from days 3-5 for the generation of atrial cardiomyocytes.
Day 2-6 EBs were dissociated with TrypLE for 2-4 min at room temperature (RT). Day 20 EBs were dissociated by incubation in Collagenase type 2 (0.5 mg/ml, Worthington) in HANKs buffer overnight at RT followed by TrypLE treatment as described above. The following antibodies were used for staining: anti-PDGFRa-PE (R&D Systems, 3:50), anti-CD235a-APC (BD PharMingen, 1:100), antiSIRPa-PeCy7 (Biolegend, 1:1000), anti-CD90-APC (BD PharMingen, 1:1000), anticardiac isoform of CTNT (ThermoFisher Scientific, 1:2000), or anti-myosin light chain 2 (Abcam, 1:1000). For unconjugated primary antibodies, the following secondary antibodies were used for detection: goat anti-mouse IgG-APC (BD Pharmigen, 1:250), or donkey anti-rabbit IgG-PE (Jackson ImmunoResearch, 1:250). Detailed antibody information is described in Table 2.
The Aldefluor™ assay (STEMCELL Technologies) was performed according to the instruction provided by the manufacturer. Briefly, day 2-6 EBs were dissociated as described above. […] Stained cells were analyzed as described above. […]

[2] = system: MSC-iPS1 induced pluripotent stem cell line derived EBs; assay: ROH/RA response of MSC-iPS1-derived EBs (day 20 flow cytometry and qRT-PCR); format: cell-based, human; conditions: treated days 3 to 5
Source text: (§2) To determine if the approach for optimizing atrial and ventricular differentiation based on ALDH activity and CD235a expression is broadly applicable, we next used it to generate these cardiomyocyte populations from the HES2 human embryonic stem cell and the MSC-iPS1 induced pluripotent stem cell lines. Titration studies identified 5B/2A and 5B/6A as optimal for atrial and ventricular inductions, respectively, for HES2 cells and 4B/4A as optimal for ventricular induction for MSCiPSC1 cells (FIGS. 7A, 7B, 7E, and 7F; Mendeley http://dx.doi.org/10.17632/7z7d5v2c3w.1). Optimization of atrial induction from the MSC-iPSC1 cells was more challenging, as all cytokine combinations promoted the development of a substantial CD235a+ population. One interpretation of these patterns is that the MSC-iPS1 cells have a high level of endogenous Nodal/Activin A signaling, resulting in the development of some CD235a+ cells under all conditions. To test this, we added the Nodal/Activin A/transforming growth factor beta (TGF-beta) inhibitor SB-431542 (SB) from days 3 to 5 to cells induced with 4B/1A.
as §1, with “The EBs were cultured in ultra-low attachment 6-well dishes (Corning) throughout the differentiation for maintaining suspension cultures.” left out

[3] = system: HES3 NKX2-5:GFP hESC-derived mesoderm; assay: Specification of mesoderm populations to an atrial fate by ROH or RA (day 20 flow cytometry and qRT-PCR); format: cell-based, human; conditions: day 4, 5B/4A induced
[4] = system: HES2 human embryonic stem cell derived EBs; assay: ROH/RA response of HES2-derived EBs (day 20 flow cytometry and qRT-PCR); format: cell-based; conditions: treated days 3 to 5
Source text: as §2
as §1, with “The EBs were cultured in ultra-low attachment 6-well dishes (Corning) throughout the differentiation for maintaining suspension cultures.” left out

CC1=C(/C=C/C(C)=C/C=C/C(C)=C/C(=O)O)C(C)(C)CCC1 [RA, all trans retinoic acid]
atrial specification (MLC2V+, IRX4, KCNJ3, NR2F2) ([1]; 5B/12A-induced EBs, treated days 3-5): able to induce an atrial-like cardiomyocyte phenotype
atrial specification (MLC2V+ frequency, IRX4, KCNJ3) ([1]; ALDH+PDGFRalpha+ fraction, day 4, 3B/2A induced, 24 hr treatment): similar
response of ALDH+ mesoderm (atrial expression profile) ([2]; MSC-iPS1, 4B/1A+SB induced): responded to both ROH and RA
response of CD235a+ mesoderm (MLC2V content, MYL2, IRX4, KCNJ3, NR2F2) ([2]; MSC-iPS1, 4B/4A induced): both responded to RA
atrial specification (MLC2V+, IRX4, NPPA, KCNJ3, NR2F2) ([3]; CD235a+ALDH− fraction): responded to RA
atrial specification (MLC2V+, IRX4, NPPA, KCNJ3, NR2F2) ([3]; CD235a−ALDH+ fraction): responded to RA
response of ALDH+ mesoderm (atrial expression profile) ([4]; HES2, 5B/2A induced): responded to both ROH and RA
response of CD235a+ mesoderm (MLC2V content, MYL2, IRX4, KCNJ3, NR2F2) ([4]; HES2, 5B/6A induced): both responded to RA
